One experiment has as its target T1, human recombinant HDAC1 (Homo sapiens, UniProt Q13547).
T1 construct: purchased Enzo Life Science BML-SE456
Description: HDAC1 enzyme activity inhibition assay (HDAC Fluorimetric Drug Discovery Kit). Conditions: human recombinant HDAC1, Fluor de Lys substrate 10 μM, 30° C. 60 minutes. It counts as biochemical. Put shortly:
(§1)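 Fluorimetric deacetylase assay: 5-fold serial compound dilutions, 0.3 μg recombinant human enzyme (HDAC1 or HDAC6, same protocol), 10 μM Fluor de Lys-SIRT1 substrate, 60 min at 30 °C. Signal developed 30 min, measured at 360/460 nm; IC50 values derived.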

For another experiment, the target named is T2, human recombinant HDAC6 (Homo sapiens, UniProt Q9UBN7).
T2 construct: purchased Calbiochem 382180
T2 sequence (Q9UBN7 1-1215): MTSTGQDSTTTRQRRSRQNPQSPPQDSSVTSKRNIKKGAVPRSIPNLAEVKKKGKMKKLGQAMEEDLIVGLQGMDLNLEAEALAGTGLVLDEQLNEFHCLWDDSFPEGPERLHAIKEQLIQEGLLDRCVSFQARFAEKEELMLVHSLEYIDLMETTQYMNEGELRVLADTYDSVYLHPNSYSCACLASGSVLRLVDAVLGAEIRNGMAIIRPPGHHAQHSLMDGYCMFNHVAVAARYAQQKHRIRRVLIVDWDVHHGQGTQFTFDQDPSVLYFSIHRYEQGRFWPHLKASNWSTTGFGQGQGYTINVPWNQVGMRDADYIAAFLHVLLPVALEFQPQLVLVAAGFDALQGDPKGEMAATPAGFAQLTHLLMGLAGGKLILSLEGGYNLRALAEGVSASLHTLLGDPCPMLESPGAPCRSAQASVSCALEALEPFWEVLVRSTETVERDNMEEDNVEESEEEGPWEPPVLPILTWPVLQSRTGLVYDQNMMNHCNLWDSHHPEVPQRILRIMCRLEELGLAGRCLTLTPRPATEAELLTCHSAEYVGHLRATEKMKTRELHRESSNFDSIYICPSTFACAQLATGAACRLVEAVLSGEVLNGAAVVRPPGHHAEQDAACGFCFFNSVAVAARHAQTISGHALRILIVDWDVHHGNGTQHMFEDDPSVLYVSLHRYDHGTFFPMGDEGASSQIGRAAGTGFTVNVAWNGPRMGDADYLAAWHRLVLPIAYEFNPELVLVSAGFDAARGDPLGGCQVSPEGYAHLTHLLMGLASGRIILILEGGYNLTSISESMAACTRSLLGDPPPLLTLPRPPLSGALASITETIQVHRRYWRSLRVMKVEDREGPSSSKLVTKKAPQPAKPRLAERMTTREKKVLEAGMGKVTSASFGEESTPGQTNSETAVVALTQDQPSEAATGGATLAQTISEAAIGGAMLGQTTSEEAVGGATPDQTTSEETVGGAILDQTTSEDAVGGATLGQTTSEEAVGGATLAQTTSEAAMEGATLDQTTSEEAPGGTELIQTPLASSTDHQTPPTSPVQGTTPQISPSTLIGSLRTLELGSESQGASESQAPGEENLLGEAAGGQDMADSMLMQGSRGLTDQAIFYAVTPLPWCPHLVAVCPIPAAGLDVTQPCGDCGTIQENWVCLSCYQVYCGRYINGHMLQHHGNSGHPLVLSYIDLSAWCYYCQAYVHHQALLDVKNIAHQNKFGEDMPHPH
Description: HDAC6 enzyme activity inhibition assay (HDAC Fluorimetric Drug Discovery Kit). Conditions: for HDAC6 selectivity (fold): HDAC6 over HDAC1; for IC50: human recombinant HDAC6, same protocol as HDAC1, read-out: HDAC6. It counts as biochemical. The essentials:
as §1

Each structure is given as a SMILES string.

T1 sequence (Q13547 whole entry): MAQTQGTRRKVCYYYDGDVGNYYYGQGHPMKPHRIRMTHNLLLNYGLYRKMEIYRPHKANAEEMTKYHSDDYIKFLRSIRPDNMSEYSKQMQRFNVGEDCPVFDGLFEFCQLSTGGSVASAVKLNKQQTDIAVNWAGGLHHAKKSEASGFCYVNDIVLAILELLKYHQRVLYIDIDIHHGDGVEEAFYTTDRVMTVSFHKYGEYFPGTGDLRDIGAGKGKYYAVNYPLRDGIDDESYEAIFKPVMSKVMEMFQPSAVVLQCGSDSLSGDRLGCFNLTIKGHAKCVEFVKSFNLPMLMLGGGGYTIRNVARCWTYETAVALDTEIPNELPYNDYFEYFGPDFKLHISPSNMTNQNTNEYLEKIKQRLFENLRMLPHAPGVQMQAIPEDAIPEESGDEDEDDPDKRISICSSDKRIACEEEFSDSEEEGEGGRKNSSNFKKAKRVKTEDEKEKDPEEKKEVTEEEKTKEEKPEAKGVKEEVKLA

With `CCN1CCN(C(=O)N(Cc2ccc(-c3nnc(C(F)(F)F)o3)cn2)c2cccc(F)c2)CC1` [Compound 21867, 4-Ethyl-N-(3-fluorophenyl)-N-((5-(5-(trifluoromethyl)-1,3,4-oxadiazol-2-yl)pyridin-2-yl)methyl)piperazine-1-carboxamide], the IC50 on human recombinant HDAC1 came to 35.9 µM. In addition, at human recombinant HDAC6, the “HDAC6 selectivity (fold)” value amounted to 489 fold and the IC50 stood at 0.073 µM.
The corresponding values for `CCN1CCN(C(=O)N(Cc2ccc(-c3nnc(C(F)(F)F)o3)cc2)c2ccc(F)cc2)CC1` [Compound 21868, 4-Ethyl-N-(4-fluorophenyl)-N-(4-(5-(trifluoromethyl)-1,3,4-oxadiazol-2-yl)benzyl)piperazine-1-carboxamide] are 27.5 µM, 172 fold and 0.16 µM.
In the same order, the values of `CCN1CCN(C(=O)N(Cc2ccc(-c3nnc(C(F)(F)F)o3)cc2F)c2ccc(F)cc2)CC1` [Compound 21869, 4-Ethyl-N-(2-fluoro-4-(5-(trifluoromethyl)-1,3,4-oxadiazol-2-yl)benzyl)-N-(4-fluorophenyl)piperazine-1-carboxamide] are 18.9 µM, 137 fold and 0.138 µM.
In the case of `CCN1CCN(C(=O)N(Cc2ccc(-c3nnc(C(F)(F)F)o3)cn2)c2ccc(F)cc2)CC1` [Compound 21870, 4-Ethyl-N-(4-fluorophenyl)-N-((5-(5-(trifluoromethyl)-1,3,4-oxadiazol-2-yl)pyridin-2-yl)methyl)piperazine-1-carboxamide], the IC50 on human recombinant HDAC1 amounted to 45.1 µM. Further, on human recombinant HDAC6, the “HDAC6 selectivity (fold)” value was found to be 400 fold and the IC50 turned out to be 0.113 µM.
In the case of `CCN1CCN(C(=O)N(Cc2ccc(-c3nnc(C(F)(F)F)o3)cc2)c2cccc(OC)c2)CC1` [Compound 21871, 4-Ethyl-N-(3-methoxyphenyl)-N-(4-(5-(trifluoromethyl)-1,3,4-oxadiazol-2-yl)benzyl)piperazine-1-carboxamide], the IC50 at human recombinant HDAC1 came out at 9.13 µM. In addition, on human recombinant HDAC6, the “HDAC6 selectivity (fold)” value was determined as 28 fold and the IC50 came to 0.321 µM.
The corresponding values for `CCN1CCN(C(=O)N(Cc2ccc(-c3nnc(C(F)(F)F)o3)cc2F)c2cccc(OC)c2)CC1` [Compound 21872, 4-Ethyl-N-(2-fluoro-4-(5-(trifluoromethyl)-1,3,4-oxadiazol-2-yl)benzyl)-N-(3-methoxyphenyl)piperazine-1-carboxamide] are 9.43 µM, 38 fold and 0.249 µM.
Take `CCN1CCN(C(=O)N(Cc2ccc(-c3nnc(C(F)(F)F)o3)cn2)c2cccc(OC)c2)CC1` [Compound 21873, 4-Ethyl-N-(3-methoxyphenyl)-N-((5-(5-(trifluoromethyl)-1,3,4-oxadiazol-2-yl)pyridin-2-yl)methyl)piperazine-1-carboxamide]: the IC50 on human recombinant HDAC1 is 14.9 µM. Moreover, at human recombinant HDAC6, the “HDAC6 selectivity (fold)” value came out at 55 fold and the IC50 amounted to 0.269 µM.
On to `CCN1CCN(C(=O)N(Cc2ccc(-c3nnc(C(F)(F)F)o3)cc2)c2ccc(OC)cc2)CC1` [Compound 21874, 4-Ethyl-N-(4-methoxyphenyl)-N-(4-(5-(trifluoromethyl)-1,3,4-oxadiazol-2-yl)benzyl)piperazine-1-carboxamide], for which the IC50 on human recombinant HDAC1 amounted to 6.17 µM. In addition, at human recombinant HDAC6, the “HDAC6 selectivity (fold)” value is 20 fold and the IC50 is 0.308 µM.
Regarding `CCN1CCN(C(=O)N(Cc2ccc(-c3nnc(C(F)(F)F)o3)cc2F)c2ccc(OC)cc2)CC1` [Compound 21875, 4-Ethyl-N-(2-fluoro-4-(5-(trifluoromethyl)-1,3,4-oxadiazol-2-yl)benzyl)-N-(4-methoxyphenyl)piperazine-1-carboxamide], the IC50 on human recombinant HDAC1 amounted to 9 µM. At human recombinant HDAC6, the “HDAC6 selectivity (fold)” value was determined as 23 fold and the IC50 stood at 0.386 µM.
In the same order, the values of `CCN1CCN(C(=O)N(Cc2ccc(-c3nnc(C(F)(F)F)o3)cn2)c2ccc(OC)cc2)CC1` [Compound 21876, 4-Ethyl-N-(4-methoxyphenyl)-N-((5-(5-(trifluoromethyl)-1,3,4-oxadiazol-2-yl)pyridin-2-yl)methyl)piperazine-1-carboxamide] are 11.7 µM, 46 fold and 0.255 µM.
For `CCN1CCN(C(=O)N(Cc2ccc(-c3nnc(C(F)F)o3)cc2)c2cccc(Cl)c2)CC1` [Compound 21877, N-(3-Chlorophenyl)-N-(4-(5-(difluoromethyl)-1,3,4-oxadiazol-2-yl)benzyl)-4-ethylpiperazine-1-carboxamide], the IC50 at human recombinant HDAC1 was 65 µM. Also, at human recombinant HDAC6, the “HDAC6 selectivity (fold)” value was determined as 1424 fold and the IC50 was determined as 0.046 µM.
As for `CCN1CCN(C(=O)N(Cc2ccc(-c3nnc(C(F)F)o3)cc2F)c2cccc(Cl)c2)CC1` [Compound 21878, N-(3-Chlorophenyl)-N-(4-(5-(difluoromethyl)-1,3,4-oxadiazol-2-yl)-2-fluorobenzyl)-4-ethylpiperazine-1-carboxamide], the IC50 at human recombinant HDAC1 is 21.5 µM. At human recombinant HDAC6, the “HDAC6 selectivity (fold)” value is 522 fold and the IC50 stood at 0.041 µM.
For `CCN1CCN(C(=O)N(Cc2ccc(-c3nnc(C(F)F)o3)cn2)c2cccc(Cl)c2)CC1` [Compound 21879, N-(3-Chlorophenyl)-N-((5-(5-(difluoromethyl)-1,3,4-oxadiazol-2-yl)pyridin-2-yl)methyl)-4-ethylpiperazine-1-carboxamide], the IC50 on human recombinant HDAC1 was 27.9 µM. Further, on human recombinant HDAC6, the “HDAC6 selectivity (fold)” value stood at 1064 fold and the IC50 was determined as 0.026 µM.
Regarding `CCN1CCN(C(=O)N(Cc2ccc(-c3nnc(C(F)F)o3)cc2)c2ccc(Cl)cc2)CC1` [Compound 21880, N-(4-Chlorophenyl)-N-(4-(5-(difluoromethyl)-1,3,4-oxadiazol-2-yl)benzyl)-4-ethylpiperazine-1-carboxamide], the IC50 at human recombinant HDAC1 was found to be 44.4 µM; at human recombinant HDAC6 it was 0.095 µM. Also, the “HDAC6 selectivity (fold)” value on human recombinant HDAC6 was determined as 467 fold.
The corresponding values for `CCN1CCN(C(=O)N(Cc2ccc(-c3nnc(C(F)F)o3)cc2)c2ccc(OC)cc2)CC1` [Compound 21892, N-(4-(5-(Difluoromethyl)-1,3,4-oxadiazol-2-yl)benzyl)-4-ethyl-N-(4-methoxyphenyl)piperazine-1-carboxamide] are 48.7 µM, 0.089 µM and 548 fold.
`CCN1CCN(C(=O)N(Cc2ccc(-c3nnc(C(F)F)o3)cc2F)c2ccc(OC)cc2)CC1` [Compound 21893, N-(4-(5-(Difluoromethyl)-1,3,4-oxadiazol-2-yl)-2-fluorobenzyl)-4-ethyl-N-(4-methoxyphenyl)piperazine-1-carboxamide]: the IC50 was determined as 37.6 µM at human recombinant HDAC1 and 0.059 µM on human recombinant HDAC6. Further, on human recombinant HDAC6, the “HDAC6 selectivity (fold)” value was found to be 640 fold.
With `CCN1CCN(C(=O)N(Cc2ccc(-c3nnc(C(F)F)o3)cn2)c2ccc(OC)cc2)CC1` [Compound 21894, N-((5-(5-(Difluoromethyl)-1,3,4-oxadiazol-2-yl)pyridin-2-yl)methyl)-4-ethyl-N-(4-methoxyphenyl)piperazine-1-carboxamide], on human recombinant HDAC1, the IC50 came to 76.3 µM. Besides, at human recombinant HDAC6, the “HDAC6 selectivity (fold)” value came to 1588 fold and the IC50 is 0.048 µM.
For the compound `O=C(N1CCS(=O)(=O)CC1)N(Cc1ccc(-c2nnc(C(F)F)o2)cc1F)c1ccc(CN2CCN(C3COC3)CC2)cc1` [Compound 21896, N-(4-(5-(difluoromethyl)-1,3,4-oxadiazol-2-yl)-2-fluorobenzyl)-N-(4-((4-(oxetan-3-yl)piperazin-1-yl)methyl)phenyl)thiomorpholine-4-carboxamide 1,1-dioxide], on human recombinant HDAC1, the IC50 amounted to 28.5 µM. Besides, on human recombinant HDAC6, the “HDAC6 selectivity (fold)” value is on record as 82 fold and the IC50 was determined as 0.346 µM.

(Values after US10717716B2, “1,3,4-oxadiazole derivative compounds as histone deacetylase 6 inhibitor, and the pharmaceutical composition comprising the same” (Chong Kun Dang Pharmaceutical Corp., priority 2015, dated 2020).)
